# Measurements reported in patent publication US8247211B2, “Glycopeptide antibiotics” (American Cyanamid Company, priority 2001, dated 2012).
# Tests used:
# Assay in all cases: In vitro antibacterial evaluation: minimum inhibitory concentration (MIC), broth dilution method
# Format in all cases: cell-based
# Enterococcus sp. = settings: 18 hours at 35° C.
# Outline: (§1)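 MIC by broth dilution in Mueller-Hinton II medium following NCCLS M7-A2. Inoculum was 5×10^5 CFU/mL and antibiotic was tested over 64-0.06 μg/mL. Gram-positive panel included clinical isolates resistant to methicillin, penicillin and/or vancomycin.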
# Staphylococcus sp. = settings: for MIC Staphylococcus aureus (ATCC 29213): strain ATCC 29213; for MIC Staphylococcus aureus (GC 1131): strain GC 1131; for MIC Staphylococcus aureus (GC 3051): strain GC 3051; for MIC Staphylococcus aureus (GC 3053): strain GC 3053; for MIC Staphylococcus aureus (GC 4541): strain GC 4541; for MIC Staphylococcus aureus (GC 4542): strain GC 4542; for MIC Staphylococcus aureus-SMITH (GC 4543): strain GC 4543; for MIC Staphylococcus aureus (GC 4544): strain GC 4544; for MIC Staphylococcus aureus (GC 4545): strain GC 4545; for MIC Staphylococcus haemolyticus (GC 4546): strain GC 4546; for MIC Coagulase Negative Staphylococcus (GC 4547): strain GC 4547; for MIC Coagulase Negative Staphylococcus (GC 4548): strain GC 4548; for MIC Coagulase Negative Staphylococcus (GC 4549): strain GC 4549; for MIC Coagulase Negative Staphylococcus (GC 4551): strain GC 4551; for MIC Coagulase Negative Staphylococcus (GC 6257): strain GC 6257
# Outline: as §1
# Streptococcus sp. = settings: 18 hours at 35° C.
# Outline: as §1
# Escherichia coli = settings: 18 hours at 35° C.
# Outline: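 Broth dilution per NCCLS M7-A2 in Muller-Hinton II […], inoculum 5×10^5 CFU/mL, antibiotic tested over 64-0.06 μg/mL. MIC is taken as the lowest concentration that inhibits growth. Panel includes recent clinical isolates resistant to methicillin, penicillin and/or vancomycin.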
# [1] = broth dilution, inoculum 5×10^5 CFU/mL
# [2] = broth dilution, 18 hours at 35° C.
smiles,measurement,setting,value
"CC(C)CC(=O)OC1C(O)C(OC2C(CO)OC(Oc3ccc(CC4NC(=O)C(C(C)c5ccccc5)NC(=O)CNC(=O)C(CO)NC(=O)C(C(O)C5CNC(=N)N5C5OC(CO)C(O)C(O)C5O)NC(=O)C(C(O)C5CNC(=N)N5)NC4=O)cc3)C(O)C2O)OC2COC3(OC21)C1CC2CC(C1)CC3C2 (stereo not drawn) [Example 218, Cyclo[glycyl-β-methylphenylalanyl-O-[4-O-[4,6-O-(2-adamantylidene)-3-O-(3-methyl-butanoyl)-hexopyranosyl]hexopyranosyl]tyrosyl-3-(2-iminoimidazolidin-4-yl)-seryl-3-(3-hexopyranosyl-2-iminoimidazolidin-4-yl)serylseryl]]",MIC Enterococcus avium (GC 4558),Enterococcus sp.; Enterococcus avium (GC 4558),4 µg/mL
same,MIC Enterococcus faecalis (ATCC 29212),Enterococcus sp.; Enterococcus faecalis (ATCC 29212),4 µg/mL
same,MIC Enterococcus faecalis (GC 2242),Enterococcus sp.; Enterococcus faecalis (GC 2242),4 µg/mL
same,MIC Enterococcus faecalis (GC 2691),Enterococcus sp.; Enterococcus faecalis (GC 2691),4 µg/mL
same,MIC Enterococcus faecalis (GC 3059),Enterococcus sp.; Enterococcus faecalis (GC 3059),4 µg/mL
same,MIC Enterococcus faecalis (GC 4552),Enterococcus sp.; Enterococcus faecalis (GC 4552),4 µg/mL
same,MIC Enterococcus faecalis (GC 4553),Enterococcus sp.; Enterococcus faecalis (GC 4553),4 µg/mL
same,MIC Enterococcus faecalis (GC 4554),Enterococcus sp.; Enterococcus faecalis (GC 4554),4 µg/mL
same,MIC Enterococcus faecalis (GC 6189),Enterococcus sp.; Enterococcus faecalis (GC 6189),4 µg/mL
same,MIC Enterococcus faecium (GC 2243),Enterococcus sp.; Enterococcus faecium (GC 2243),4 µg/mL
same,MIC Enterococcus faecium (GC 4556),Enterococcus sp.; Enterococcus faecium (GC 4556),4 µg/mL
same,MIC Enterococcus faecium (GC 4557),Enterococcus sp.; Enterococcus faecium (GC 4557),4 µg/mL
same,MIC Enterococcus avium (GC 4558),Enterococcus sp.; [1],4 µg/mL
same,MIC Enterococcus faecalis (ATCC 29212),Enterococcus sp.; [1],4 µg/mL
same,MIC Enterococcus faecalis (GC 2242),Enterococcus sp.; [1],4 µg/mL
same,MIC Enterococcus faecalis (GC 2691),Enterococcus sp.; [1],4 µg/mL
same,MIC Enterococcus faecalis (GC 3059),Enterococcus sp.; [1],4 µg/mL
same,MIC Enterococcus faecalis (GC 4552),Enterococcus sp.; [1],4 µg/mL
same,MIC Enterococcus faecalis (GC 4553),Enterococcus sp.; [1],4 µg/mL
same,MIC Enterococcus faecalis (GC 4554),Enterococcus sp.; [1],4 µg/mL
same,MIC Enterococcus faecalis (GC 6189),Enterococcus sp.; [1],4 µg/mL
same,MIC Enterococcus faecium (GC 2243),Enterococcus sp.; [1],4 µg/mL
same,MIC Enterococcus faecium (GC 4556),Enterococcus sp.; [1],4 µg/mL
same,MIC Enterococcus faecium (GC 4557),Enterococcus sp.; [1],4 µg/mL
same,MIC Staphylococcus aureus (ATCC 29213),Staphylococcus sp.,4 µg/mL
same,MIC Staphylococcus aureus (GC 1131),Staphylococcus sp.,4 µg/mL
same,MIC Staphylococcus aureus (GC 3051),Staphylococcus sp.,4 µg/mL
same,MIC Staphylococcus aureus (GC 3053),Staphylococcus sp.,4 µg/mL
same,MIC Staphylococcus aureus (GC 4541),Staphylococcus sp.,4 µg/mL
same,MIC Staphylococcus aureus (GC 4542),Staphylococcus sp.,4 µg/mL
same,MIC Staphylococcus aureus-SMITH (GC 4543),Staphylococcus sp.,4 µg/mL
same,MIC Staphylococcus aureus (GC 4544),Staphylococcus sp.,4 µg/mL
same,MIC Staphylococcus aureus (GC 4545),Staphylococcus sp.,4 µg/mL
same,MIC Staphylococcus haemolyticus (GC 4546),Staphylococcus sp.,4 µg/mL
same,MIC Coagulase Negative Staphylococcus (GC 4547),Staphylococcus sp.,4 µg/mL
same,MIC Coagulase Negative Staphylococcus (GC 4548),Staphylococcus sp.,4 µg/mL
same,MIC Coagulase Negative Staphylococcus (GC 4549),Staphylococcus sp.,4 µg/mL
same,MIC Coagulase Negative Staphylococcus (GC 4551),Staphylococcus sp.,8 µg/mL
same,MIC Coagulase Negative Staphylococcus (GC 6257),Staphylococcus sp.,4 µg/mL
same,MIC Streptococcus agalactiae (GC 4564),Streptococcus sp.; Streptococcus agalactiae (GC 4564),0.25 µg/mL
same,MIC Streptococcus pneumoniae (ATCC 6301),Streptococcus sp.; Streptococcus pneumoniae (ATCC 6301),0.12 µg/mL
same,MIC Streptococcus pneumoniae (GC 1894),Streptococcus sp.; Streptococcus pneumoniae (GC 1894),<0.06 µg/mL
same,MIC Streptococcus pneumoniae (GC 4565),Streptococcus sp.; Streptococcus pneumoniae (GC 4565),0.12 µg/mL
same,MIC Streptococcus pyogenes (GC 4563),Streptococcus sp.; Streptococcus pyogenes (GC 4563),0.5 µg/mL
same,MIC Streptococcus agalactiae (GC 4564),Streptococcus sp.; [1],0.25 µg/mL
same,MIC Streptococcus pneumoniae (ATCC 6301),Streptococcus sp.; [1],0.12 µg/mL
same,MIC Streptococcus pneumoniae (GC 1894),Streptococcus sp.; [1],<0.06 µg/mL
same,MIC Streptococcus pneumoniae (GC 4565),Streptococcus sp.; [1],0.12 µg/mL
same,MIC Streptococcus pyogenes (GC 4563),Streptococcus sp.; [1],0.5 µg/mL
same,MIC Escherichia coli (ATCC 25922),Escherichia coli; Escherichia coli (ATCC 25922),64 µg/mL
same,MIC Escherichia coli (GC 4559),Escherichia coli; Escherichia coli (GC 4559),>64 µg/mL
same,MIC Escherichia coli (GC 4560),Escherichia coli; Escherichia coli (GC 4560),8 µg/mL
CC(c1ccccc1)C1NC(=O)CNC(=O)C(CO)NC(=O)C(C(O)C2CNC(=N)N2C2OC(CO)C(O)C(O)C2O)NC(=O)C(C(O)C2CNC(=N)N2)NC(=O)C(Cc2ccc(OC3OC(CO)C(OC4OC5COC(CC6CCCCC6)OC5C(O)C4O)C(O)C3O)cc2)NC1=O (stereo not drawn) [Example 122],MIC Enterococccus avium (GC 4558),"Enterococcus sp.; broth dilution, 5×10^5 CFU/mL",2 µg/mL
same,MIC Enterococccus faecalis (ATCC 29212),"Enterococcus sp.; broth dilution, 5×10^5 CFU/mL",2 µg/mL
same,MIC Enterococccus faecalis (GC 2691),"Enterococcus sp.; broth dilution, 5×10^5 CFU/mL",2 µg/mL
same,MIC Enterococccus faecalis (GC 3059),"Enterococcus sp.; broth dilution, 5×10^5 CFU/mL",2 µg/mL
same,MIC Enterococccus faecalis (GC 4552),"Enterococcus sp.; broth dilution, 5×10^5 CFU/mL",2 µg/mL
same,MIC Enterococccus faecalis (GC 4553),"Enterococcus sp.; broth dilution, 5×10^5 CFU/mL",4 µg/mL
same,MIC Enterococccus faecalis (GC 4554),"Enterococcus sp.; broth dilution, 5×10^5 CFU/mL",2 µg/mL
same,MIC Enterococccus faecalis (GC 6189),"Enterococcus sp.; broth dilution, 5×10^5 CFU/mL",2 µg/mL
same,MIC Enterococccus faecium (GC 2243),"Enterococcus sp.; broth dilution, 5×10^5 CFU/mL",2 µg/mL
same,MIC Enterococccus faecium (GC 4556),"Enterococcus sp.; broth dilution, 5×10^5 CFU/mL",2 µg/mL
same,MIC Enterococccus faecium (GC 4557),"Enterococcus sp.; broth dilution, 5×10^5 CFU/mL",4 µg/mL
same,MIC Enterococcus faecalis (GC 2242),"Enterococcus sp.; broth dilution, 5×10^5 CFU/mL",2 µg/mL
same,MIC Staphylococcus aureus (ATCC 29213),Staphylococcus sp.,2 µg/mL
same,MIC Staphylococcus aureus (ATCC 29213),Staphylococcus sp.; [2],2 µg/mL
same,MIC Staphylococcus aureus (GC 1131),Staphylococcus sp.,2 µg/mL
same,MIC Staphylococcus aureus (GC 1131),Staphylococcus sp.; [2],2 µg/mL
same,MIC Staphylococcus aureus (GC 3051),Staphylococcus sp.,2 µg/mL
same,MIC Staphylococcus aureus (GC 3051),Staphylococcus sp.; [2],2 µg/mL
same,MIC Staphylococcus aureus (GC 3053),Staphylococcus sp.,2 µg/mL
same,MIC Staphylococcus aureus (GC 3053),Staphylococcus sp.; [2],2 µg/mL
same,MIC Staphylococcus aureus (GC 4541),Staphylococcus sp.,2 µg/mL
same,MIC Staphylococcus aureus (GC 4541),Staphylococcus sp.; [2],2 µg/mL
same,MIC Staphylococcus aureus (GC 4542),Staphylococcus sp.,2 µg/mL
same,MIC Staphylococcus aureus (GC 4542),Staphylococcus sp.; [2],2 µg/mL
same,MIC Staphylococcus aureus-SMITH (GC 4543),Staphylococcus sp.; 18 hours at 35° C.,2 µg/mL
same,MIC Staphylococcus aureus-SMITH (GC 4543),Staphylococcus sp.; [2],2 µg/mL
same,MIC Staphylococcus aureus (GC 4544),Staphylococcus sp.,1 µg/mL
same,MIC Staphylococcus aureus (GC 4544),Staphylococcus sp.; [2],1 µg/mL
same,MIC Staphylococcus aureus (GC 4545),Staphylococcus sp.,2 µg/mL
same,MIC Staphylococcus aureus (GC 4545),Staphylococcus sp.; [2],2 µg/mL
same,MIC Staphylococcus haemolyticus (GC 4546),Staphylococcus sp.,2 µg/mL
same,MIC Staphylococcus haemolyticus (GC 4546),Staphylococcus sp.; [2],2 µg/mL
same,MIC Coagulase Negative Staphylococcus (GC 4547),Staphylococcus sp.,2 µg/mL
same,MIC Coagulase Negative Staphylococcus (GC 4547),Staphylococcus sp.; [2],2 µg/mL
same,MIC Coagulase Negative Staphylococcus (GC 4548),Staphylococcus sp.,1 µg/mL
same,MIC Coagulase Negative Staphylococcus (GC 4548),Staphylococcus sp.; [2],1 µg/mL
same,MIC Coagulase Negative Staphylococcus (GC 4549),Staphylococcus sp.,1 µg/mL
same,MIC Coagulase Negative Staphylococcus (GC 4549),Staphylococcus sp.; [2],1 µg/mL
same,MIC Coagulase Negative Staphylococcus (GC 4551),Staphylococcus sp.,2 µg/mL
same,MIC Coagulase Negative Staphylococcus (GC 4551),Staphylococcus sp.; [2],2 µg/mL
same,MIC Coagulase Negative Staphylococcus (GC 6257),Staphylococcus sp.,1 µg/mL
same,MIC Coagulase Negative Staphylococcus (GC 6257),Staphylococcus sp.; [2],1 µg/mL
same,MIC Streptococcus agalactiae (GC 4564),"Streptococcus sp.; broth dilution, 5×10^5 CFU/mL",0.12 µg/mL
same,MIC Streptococcus pneumoniae (GC 1894),"Streptococcus sp.; broth dilution, 5×10^5 CFU/mL",<0.06 µg/mL
same,MIC Streptococcus pneumoniae (GC 4565),"Streptococcus sp.; broth dilution, 5×10^5 CFU/mL",0.12 µg/mL
same,MIC Streptococcus pneumonine (ATCC 6301),"Streptococcus sp.; broth dilution, 5×10^5 CFU/mL",<0.06 µg/mL
same,MIC Streptococcus pyogenes (GC 4563),"Streptococcus sp.; broth dilution, 5×10^5 CFU/mL",<0.06 µg/mL
same,MIC Escherichia coli (ATCC 25922),Escherichia coli; 5×10^5 CFU/mL,32 µg/mL
same,MIC Escherichia coli (GC 4559),Escherichia coli; 5×10^5 CFU/mL,32 µg/mL
same,MIC Escherichia coli (GC 4560),Escherichia coli; 5×10^5 CFU/mL,2 µg/mL
